Measurements reported in patent US12187742B2 (XRAD Therapeutics, Inc., priority 2018, dated 2025).
Where a name gives a salt, the structure may show the parent alone.

Tests used:
DNA-PK = DNA-PK (Homo sapiens (Human), UniProt P78527); test: DNA-PK Enzyme-Linked Immunosorbent Assay (phosphorylation of GST-p53 (1-101) peptide); assay type: biochemical; conditions: ELISA
In short: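 ELISA with plate-bound GST-p53 (1-101) phosphorylated by DNA-PK (0.1 μg/mL final) with 20 μM ATP for 1 h at 25 °C. Compounds tested over 10 3-fold doses from 100 nM top final. Phospho-p53 Ser15 detected by antibody, HRP and TMB, absorbance at 450 nm.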

ATM = ATM (Homo sapiens (Human), UniProt Q13315); test: ATM in Cell Western Assay (pKAP1 in etoposide-treated MCF-7 cells); assay type: cell-based
ATM, sequence (Q13315 whole entry): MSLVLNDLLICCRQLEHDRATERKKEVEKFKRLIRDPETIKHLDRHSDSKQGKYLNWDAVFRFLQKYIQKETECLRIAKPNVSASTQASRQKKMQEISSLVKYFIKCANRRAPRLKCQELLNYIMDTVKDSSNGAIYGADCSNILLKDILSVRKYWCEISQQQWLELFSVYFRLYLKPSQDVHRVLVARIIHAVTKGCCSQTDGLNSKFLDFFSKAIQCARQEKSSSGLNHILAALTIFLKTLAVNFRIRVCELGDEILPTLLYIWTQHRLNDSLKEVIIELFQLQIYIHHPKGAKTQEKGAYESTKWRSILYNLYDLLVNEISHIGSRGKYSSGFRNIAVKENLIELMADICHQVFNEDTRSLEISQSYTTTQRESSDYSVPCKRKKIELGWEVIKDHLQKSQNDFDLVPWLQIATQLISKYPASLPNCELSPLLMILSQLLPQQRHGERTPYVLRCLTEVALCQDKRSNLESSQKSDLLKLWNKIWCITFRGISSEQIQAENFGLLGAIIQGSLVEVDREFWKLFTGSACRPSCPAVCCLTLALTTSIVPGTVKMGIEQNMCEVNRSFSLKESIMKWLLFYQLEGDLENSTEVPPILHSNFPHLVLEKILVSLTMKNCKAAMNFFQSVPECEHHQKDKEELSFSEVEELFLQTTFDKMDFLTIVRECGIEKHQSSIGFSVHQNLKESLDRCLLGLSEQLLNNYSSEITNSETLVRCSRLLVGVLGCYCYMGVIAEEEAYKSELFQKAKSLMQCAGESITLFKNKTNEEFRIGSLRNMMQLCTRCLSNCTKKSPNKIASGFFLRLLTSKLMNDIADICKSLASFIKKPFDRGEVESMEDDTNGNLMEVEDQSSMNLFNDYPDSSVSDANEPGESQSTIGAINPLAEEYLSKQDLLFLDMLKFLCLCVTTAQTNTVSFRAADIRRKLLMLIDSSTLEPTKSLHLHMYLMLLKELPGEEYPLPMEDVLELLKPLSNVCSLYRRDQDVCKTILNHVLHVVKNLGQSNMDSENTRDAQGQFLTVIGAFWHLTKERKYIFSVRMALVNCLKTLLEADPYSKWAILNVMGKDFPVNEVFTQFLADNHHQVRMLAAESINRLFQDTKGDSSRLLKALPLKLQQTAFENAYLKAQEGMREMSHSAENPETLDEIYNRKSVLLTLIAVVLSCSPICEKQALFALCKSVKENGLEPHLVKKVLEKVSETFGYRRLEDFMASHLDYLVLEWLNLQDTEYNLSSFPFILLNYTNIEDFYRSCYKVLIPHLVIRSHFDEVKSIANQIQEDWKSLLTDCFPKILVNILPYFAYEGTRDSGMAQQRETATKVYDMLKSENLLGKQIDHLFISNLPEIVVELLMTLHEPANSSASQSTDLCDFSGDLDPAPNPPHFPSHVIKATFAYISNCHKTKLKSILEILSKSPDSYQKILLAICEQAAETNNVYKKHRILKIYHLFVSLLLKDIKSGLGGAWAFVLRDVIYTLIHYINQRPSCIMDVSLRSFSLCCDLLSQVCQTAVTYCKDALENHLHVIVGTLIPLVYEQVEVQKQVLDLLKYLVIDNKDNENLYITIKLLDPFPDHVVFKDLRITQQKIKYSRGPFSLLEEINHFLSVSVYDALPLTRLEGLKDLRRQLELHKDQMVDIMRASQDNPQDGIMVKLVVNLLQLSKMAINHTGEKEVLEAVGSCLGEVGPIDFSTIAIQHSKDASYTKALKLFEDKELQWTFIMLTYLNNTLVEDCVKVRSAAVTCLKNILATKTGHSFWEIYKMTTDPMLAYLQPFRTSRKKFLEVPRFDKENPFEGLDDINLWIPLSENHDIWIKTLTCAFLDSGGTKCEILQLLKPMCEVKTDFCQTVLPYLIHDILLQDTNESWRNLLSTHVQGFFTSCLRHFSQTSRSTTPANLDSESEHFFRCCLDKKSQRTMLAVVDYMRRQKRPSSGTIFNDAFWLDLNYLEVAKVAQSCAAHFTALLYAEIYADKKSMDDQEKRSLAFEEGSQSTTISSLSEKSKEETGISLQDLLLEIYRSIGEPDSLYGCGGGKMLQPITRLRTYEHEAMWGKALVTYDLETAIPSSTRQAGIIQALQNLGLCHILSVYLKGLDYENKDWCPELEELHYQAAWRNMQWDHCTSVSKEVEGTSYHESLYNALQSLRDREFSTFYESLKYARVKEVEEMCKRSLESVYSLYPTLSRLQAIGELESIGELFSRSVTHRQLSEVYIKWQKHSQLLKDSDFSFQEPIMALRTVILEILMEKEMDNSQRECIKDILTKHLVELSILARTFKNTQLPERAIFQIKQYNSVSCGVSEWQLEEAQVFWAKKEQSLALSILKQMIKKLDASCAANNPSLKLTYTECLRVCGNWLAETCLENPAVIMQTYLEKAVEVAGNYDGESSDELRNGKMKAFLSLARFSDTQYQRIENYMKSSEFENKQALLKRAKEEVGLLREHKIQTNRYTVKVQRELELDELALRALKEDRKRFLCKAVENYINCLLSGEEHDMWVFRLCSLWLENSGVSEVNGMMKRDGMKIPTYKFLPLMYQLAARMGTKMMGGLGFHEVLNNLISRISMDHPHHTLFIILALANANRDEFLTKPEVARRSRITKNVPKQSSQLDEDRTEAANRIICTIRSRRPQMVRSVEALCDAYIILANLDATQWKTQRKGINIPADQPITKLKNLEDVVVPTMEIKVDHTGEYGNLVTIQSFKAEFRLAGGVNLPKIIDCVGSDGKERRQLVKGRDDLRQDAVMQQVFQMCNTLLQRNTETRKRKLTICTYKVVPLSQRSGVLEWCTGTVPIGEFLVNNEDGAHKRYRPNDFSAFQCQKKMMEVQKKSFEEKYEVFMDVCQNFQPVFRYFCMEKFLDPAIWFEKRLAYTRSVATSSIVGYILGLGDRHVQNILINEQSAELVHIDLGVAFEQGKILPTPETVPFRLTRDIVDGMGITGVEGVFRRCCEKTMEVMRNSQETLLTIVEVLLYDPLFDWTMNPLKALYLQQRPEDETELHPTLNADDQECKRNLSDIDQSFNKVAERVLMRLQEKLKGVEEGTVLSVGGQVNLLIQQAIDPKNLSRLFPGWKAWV
In short: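 Cells received compounds in a 10-dose, 3-fold series from a 1 μM final top concentration, then 100 μM etoposide, for 1 hr at 37° C. They were then fixed with paraformaldehyde and permeabilized with 0.1% Triton X-100. After immunostaining, plates were scanned on an infrared imager.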

[1] = MCF-7 cells, etoposide 100 μM, 1 hr, pKAP1 readout
[2] = pKAP1 in etoposide-treated MCF-7 cells

Row | SMILES | IC50 (DNA-PK; ATP 20 μM) [nM] | IC50 (ATM; [1]) [nM] | IC50 (DNA-PK; 20 μM ATP) [nM] | IC50 (ATM; [2]) [nM]
1 | CNC1CN(c2ncc(-c3cc4c5c(cnc4cc3F)N(C)C(=O)C53CCC3)cc2NS(=O)(=O)C2CC2)C1 [Example 333, N-(5-(7′-Fluoro-3′-methyl-2′-oxo-2′,3′-dihydrospiro [cyclobutane-1,1′-pyrrolo [2,3-c]quinolin]-8′-yl)-2-(3-(methylamino)azetidin-1-yl)pyridin-3-yl)cyclopropanesulfonamide] | 0.5 to 1 | 0.5 to 1 | – | –
2 | CCS(=O)(=O)Nc1cc(-c2cc3c4c(cnc3cc2F)N(C)C(=O)C42CCC2)cnc1N1CC(NC)C1 [Example 334] | 0.5 to 1 | 1 to 100 | – | –
3 | Cc1ncc(S(=O)(=O)Nc2cc(-c3ccc4ncc5c(c4c3)C3(CCC3)C(=O)N5C)cnc2N2CC(N(C)C)C2)s1 [Example 338, N-(2-(3-(Dimethylamino)azetidin-1-yl)-5-(3′-methyl-2′-oxo-2′,3′-dihydrospiro[cyclobutane-1,1′-pyrrolo[2,3-c]quinolin]-8′-yl)pyridin-3-yl)-2-methylthiazole-5-sulfonamide] | – | – | 1 to 100 | 1 to 100
4 | CCN(C)S(=O)(=O)Nc1cc(-c2ccc3ncc4c(c3c2)C2(CCC2)C(=O)N4C)cnc1N1CC(N(C)C)C1 [Example 339, 8′-{6-[3-(Dimethylamino)azetidin-1-yl]-5-{[ethyl(methyl)sulfamoyl]amino}pyridin-3-yl}-3′-methyl-2′,3′-dihydrospiro [cyclobutane-1,1′-pyrrolo[2,3-c]quinoline]-2′-one] | – | – | 1 to 100 | 1 to 100
5 | CCS(=O)(=O)Nc1cc(-c2cc3c4c(cnc3cc2F)N(C)C(=O)C42CCC2)cnc1N1CC(N(C)C)C1 [Example 343, N-(2-(3-(Dimethylamino)azetidin-1-yl)-5-(7′-fluoro-3′-methyl-2′-oxo-2′,3′-dihydrospiro[cyclobutane-1,1′-pyrrolo[2,3-c]quinolin]-8′-yl)pyridin-3-yl)ethanesulfonamide formate] | – | – | 1 to 100 | 1 to 100
6 | CN1CC2CN(c3ncc(-c4ccc5ncc6c(c5c4)C4(CCC4)C(=O)N6C)cc3NS(C)(=O)=O)CC2C1 (centres unmarked) [Example 350, N-(5-(3′-Methyl-2′-oxo-2′,3′-dihydrospiro[cyclobutane-1,1′-pyrrolo[2,3-c]quinolin]-8′-yl)-2-(5-methylhexahydropyrrolo[3,4-c]pyrrol-2(1H)-yl)pyridin-3-yl)methanesulfonamide formate] | – | – | 1 to 100 | 1 to 100
7 | CN1C(=O)C2(CCC2)c2c1cnc1ccc(-c3cnc(N4CCC(N5CCOCC5)CC4)c(NS(=O)(=O)N(C)C)c3)cc21 [Example 355, 8′-{5-[(Dimethylsulfamoyl)amino]-6-[4-(morpholin-4-yl)piperidin-1-yl]pyridin-3-yl}-3′-methyl-2′,3′-dihydrospiro[cyclobutane-1,1′-pyrrolo[2,3-c]quinoline]-2′-one] | – | – | 1 to 100 | 1 to 100
8 | CN1C(=O)C2(CCC2)c2c1cnc1ccc(-c3cnc(N4CCC(N5CCOCC5)CC4)c(NS(=O)(=O)C4CC4)c3)cc21 [Example 356, N-(5-(3′-Methyl-2′-oxo-2′,3′-dihydrospiro[cyclobutane-1,1′-pyrrolo[2,3-c]quinolin]-8′-yl)-2-(4-morpholinopiperidin-l-yl)pyridin-3-yl)cyclopropanesulfonamide hydrochloride] | – | – | 0.5 to 1 | < 0.5
9 | CN1C(=O)C2(CCC2)c2c1cnc1ccc(-c3cnc(N4CCC(N5CCOCC5)CC4)c(NS(C)(=O)=O)c3)cc21 [Example 357, N-(5-(3′-Methyl-2′-oxo-2′,3′-dihydrospiro[cyclobutane-1,1′-pyrrolo[2,3-c]quinolin]-8′-yl)-2-(4-morpholinopiperidin-l-yl)Pyridin-3-yl)methanesulfonamide hydrochloride] | – | – | 0.5 to 1 | 0.5 to 1
10 | CN1C(=O)C2(CCC2)c2c1cnc1cc(F)c(-c3cnc(N4CCC(N5CCCCC5)CC4)c(NS(C)(=O)=O)c3)cc21 [Example 358, N-(2-([1,4-Bipiperidin]-1′-yl)-5-(7′-fluoro-3′-methyl-2′-oxo-2′,3′-dihydrospiro[cyclobutane-1,1′-pyrrolo[2,3-c]quinolin]-8′-yl)pyridin-3-yl)methanesulfonamide hydrochloride] | – | – | 1 to 100 | 0.5 to 1
11 | CN(C)CCCOc1ncc(-c2ccc3ncc4c(c3c2)[C@]2(C[C@@H](O)C2)C(=O)N4C)cc1NS(C)(=O)=O [Example 383, trans-N-(2-(3-(Dimethylamino)propoxy)-5-(3-hydroxy-3′-methyl-2′-oxo-2′,3′-dihydrospiro[cyclobutane-1,1′-pyrrolo[2,3-c]quinolin]-8′-yl)pyridin-3-yl)methanesulfonamide] | – | – | 1 to 100 | 1 to 100

Results, then the molecule that gave them:

Row | IC50 (DNA-PK; ATP 20 μM) [nM] | IC50 (ATM; [1]) [nM] | IC50 (DNA-PK; 20 μM ATP) [nM] | IC50 (ATM; [2]) [nM] | SMILES
12 | – | – | 1 to 100 | 1 to 100 | CC(C)NCCOc1ncc(-c2cc3c4c(cnc3cc2F)N(C)C(=O)C42CCC2)cc1NS(=O)(=O)C1CC1 [Example 365, N-(5-(7′-Fluoro-3′-methyl-2′-oxo-2′,3′-dihydrospiro[cyclobutane-1,1′-pyrrolo[2,3-c]quinolin]-8′-yl)-2-(2-(isopropylamino)ethoxy)pyridin-3-yl)cyclopropanesulfonamide hydrochloride]
13 | – | – | 0.5 to 1 | 1 to 100 | CC(C)NCCOc1ncc(-c2cc3c4c(cnc3cc2F)N(C)C(=O)C42CCC2)cc1NS(=O)(=O)C(C)(C)C [Example 366, N-(5-(7′-Fluoro-3′-methyl-2′-oxo-2′,3′-dihydrospiro[cyclobutane-1,1′-pyrrolo[2,3-c]quinolin]-8′-yl)-2-(2-(isopropylamino)ethoxy)pyridin-3-yl)-2-methylpropane-2-sulfonamide]
14 | – | – | 1 to 100 | 1 to 100 | CC(C)NCCOc1ncc(-c2cc3c4c(cnc3cc2F)N(C)C(=O)C42CCC2)cc1NS(=O)(=O)C1(C)CC1 [Example 367, N-(5-(7′-Fluoro-3′-methyl-2′-oxo-2′,3′-dihydrospiro[cyclobutane-1,1′-pyrrolo[2,3-c]quinolin]-8′-yl)-2-(2-(isopropylamino)ethoxy)pyridin-3-yl)-1-methylcyclopropane-l-sulfonamide]
15 | – | – | 0.5 to 1 | 1 to 100 | CC(C)NCCOc1ncc(-c2cc3c4c(cnc3cc2F)N(C)C(=O)C42CCC2)cc1NS(=O)(=O)N(C)C [Example 369, 8′-{5-[(Dimethylsulfamoyl)amino]-6-{2-[(propan-2-ylamino]ethoxy′}pyridin-3-yl}-7′-fluoro-3′-methyl-2′,3′-dihydrospiro [cyclobutane-1,1′-pyrrolo[2,3-c]quinoline]-2′-one hydrochloride]
16 | – | – | 1 to 100 | 1 to 100 | CC(C)NCCOc1ncc(-c2cc3c4c(cnc3cc2F)N(C)C(=O)C42CCC2)cc1NS(=O)(=O)N1CCC1 [Example 370, N-(5-(7′-Fluoro-3′-methyl-2′-oxo-2′,3′-dihydrospiro [cyclobutane-1,1′-pyrrolo[2,3-c]quinolin]-8′-yl)-2-(2-(isopropylamino)ethoxy)pyridin-3-yl)azetidine-1-sulfonamide]
17 | – | – | 1 to 100 | 1 to 100 | CC(C)NCCOc1ncc(-c2cc3c4c(cnc3cc2F)N(C)C(=O)C42CCC2)cc1NS(=O)(=O)N1CC(F)C1 [Example 371, 3-Fluoro-N-(5-(7′-fluoro-3′-methyl-2′-oxo-2′,3′-dihydrospiro[cyclobutane-1,1′-pyrrolo[2,3-c]quinolin]-8′-yl)-2-(2-(isopropylamino)ethoxy)pyridin-3-yl)azetidine-1-sulfonamide]
18 | – | – | 1 to 100 | 1 to 100 | CC(C)NCCOc1ncc(-c2cc3c4c(cnc3cc2F)N(C)C(=O)C42CCC2)cc1NS(=O)(=O)N1CCOCC1 [Example 373, N-(5-(7′-Fluoro-3′-methyl-2′-oxo-2′,3′-dihydrospiro [cyclobutane-1,1′-pyrrolo [2,3-c]quinolin]-8′-yl)-2-(2-(isopropylamino)ethoxy)pyridin-3-yl)morpholine-4-sulfonamide hydrochloride]
19 | – | – | 1 to 100 | 1 to 100 | CC(C)NCCOc1ncc(-c2cc3c4c(cnc3cc2F)N(C)C(=O)C42CCC2)cc1NS(=O)(=O)CCN(C)C [Example 375, 2-(Dimethylamino)-N-(5-(7′-fluoro-3′-methyl-2′-oxo-2′,3′-dihydrospiro[cyclobutane-1,1′-pyrrolo[2,3-c]quinolin]-8′-yl)-2-(2-(isopropylamino)ethoxy)pyridin-3-yl)ethane-1-sulfonamide hydrochloride]
20 | – | – | < 0.5 | 1 to 100 | CO[C@H]1C[C@@]2(C1)C(=O)N(C)c1cnc3ccc(-c4cnc(OCCNC(C)C)c(NS(C)(=O)=O)c4)cc3c12 [Example 384, trans-N-(2-(2-(Isopropylamino)ethoxy)-5-(3-methoxy-3′-methyl-2′-oxo-2,3′-dihydrospiro[cyclobutane-1,1′-pyrrolo[2,3-c]quinolin]-8′-yl)pyridin-3-yl)methanesulfonamide hydrochloride]
21 | – | – | < 0.5 | 1 to 100 | CO[C@H]1C[C@]2(C1)C(=O)N(C)c1cnc3cc(F)c(-c4cnc(OCCNC(C)C)c(NS(C)(=O)=O)c4)cc3c12 [Example 385, cis-N-(5-(7′-Fluoro-3-methoxy-3′-methyl-2′-oxo-2′,3′-dihydrospiro[cyclobutane-1,1′-pyrrolo[2,3-c]quinolin]-8′-yl)-2-(2-(isopropylamino)ethoxy)pyridin-3-yl)methanesulfonamide]
22 | – | – | 1 to 100 | 1 to 100 | CO[C@H]1C[C@]2(C1)C(=O)N(C)c1cnc3cc(F)c(-c4cnc(OCCNC(C)C)c(NS(=O)(=O)C5CC5)c4)cc3c12 [Example 387, cis-N-(5-(7′-Fluoro-3-methoxy-3′-methyl-2′-oxo-2′,3′-dihydrospiro[cyclobutane-1,1′-pyrrolo[2,3-c]quinolin]-8′-yl)-2-(2-(isopropylamino)ethoxy)pyridin-3-yl)cyclopropanesulfonamid]
